Among the data in article PMC6213900, “Design, Synthesis, and Cytotoxic Analysis of Novel Hederagenin–Pyrazine Derivatives Based on Partial Least Squares Discriminant Analysis” (International Journal of Molecular Sciences, 2018) are IC50 and melting point values, retold here.

Series [1] deals with A549 (human non-small-cell lung cancer). Briefly: MTT cytotoxicity assay, A549. The settings on record: Homo sapiens, A549, 72 h treatment, read-out: Half Maximal Inhibitory Concentration (IC50) A549. Format: cell-based. As for the experimental part: (§1) The cytotoxicity of hederagenin derivatives in vitro was evaluated on three tumor cell lines (A549: human non-small-cell lung cancer; MCF-7: human mammary cancer; HepG2: human hepatocellular carcinoma) using the 3-(4,5-dimethylthiazol-2-yl)-2,5-diphenyltetrazolium bromide (MTT) assay. In addition, their toxicity evaluations were tested on H9c2 (murine heart myoblast) and MDCK (Madin–Darby canine kidney) cells. MCF-7, A549, HepG2, H9c2, and MDCK cells were obtained from the Chinese Academy of Medical Sciences and Peking Union Medical College. All of the cell lines were maintained in Dulbecco’s modified Eagle medium (DMEM) supplemented with 1% (v/v) penicillin/streptomycin and 10% (v/v) fetal bovine serum (FBS; Thermo Technologies, New York, NY, USA) under a humidified atmosphere containing 5% CO2 at 37 °C. The stock solutions of He derivatives were dissolved in dimethyl sulfoxide (DMSO; Sigma, St. Louis, MO, USA) and added at various concentrations to the cell culture. Cellular morphologies were observed using an inverted fluorescence microscope (Olympus IX71, Tokyo, Japan), a plate reader (BIORAD 550 spectrophotometer, Bio-rad Life Science Development Ltd., Beijing, China), and a Canton 2 flow cytometer (BD, New York, NY, USA). The antitumor activity of these compounds were evaluated on MCF-7, A549, HepG2, MDCK, and H9c2 cell lines using the MTT assay. Cells at a density of 3 × 10^3 cells/well were plated in a 96-multiwell plate in DMEM containing 10% FBS for 24 h at 37 °C with 5% CO2. Then, cells were treated for 72 h with the required concentrations (3.125, 6.25, 12.5, 25, or 50 μM) of the compounds and reference drugs (He and DDP) dissolved with the vehicle DMSO. After that, the culture substrate was replaced with 200 μL of DMEM containing 20 μL of MTT solution at 5 mg/mL and incubated for 4 h. The supernatant was removed and the dissolved formazans precipitated with 120 μL of DMSO. Wells without drugs were used as blanks. A plate reader was used to determine the absorbance at 490 nm. The above steps were repeated three times. The IC50 values were defined as the concentration of the compound which gave 50% growth inhibition, and they were calculated using Graph Pad Prism 5. The inhibition rate was calculated using the following formula, where OD is the optical density:% inhibition = 1 − (Sample group OD/Control group OD) × 100%. (1)

Series [2] has as its system H9c2 (murine heart myoblast). As to the kind of experiment: MTT toxicity evaluation, H9c2. To be noted: H9c2, 72 h treatment, non-tumor cells, read-out: Half Maximal Inhibitory Concentration (IC50) H9c2. Format: cell-based. As for the experimental part:
as §1

In series [3] the test system is HepG2 (human hepatocellular carcinoma). Briefly: MTT cytotoxicity assay, HepG2. It is filed as cell-based. The settings on record: Homo sapiens, HepG2; MTT, 72 h treatment; read-out: Half Maximal Inhibitory Concentration (IC50) HepG2. On the procedure: as §1
Series [4] concerns MCF-7 (human mammary cancer). Briefly: MTT cytotoxicity assay, MCF-7. It is filed as cell-based. The settings on record: Homo sapiens, MCF7, 72 h treatment, read-out: Half Maximal Inhibitory Concentration (IC50) MCF-7. As for the experimental part: as §1
Series [5] concerns MDCK (Madin–Darby canine kidney) cells. Briefly: MTT toxicity evaluation, MDCK. It is filed as cell-based. To be noted: Canis lupus familiaris, MDCK, 72 h treatment, non-tumor cells, read-out: Half Maximal Inhibitory Concentration (IC50) MDCK. On the procedure: as §1

As for `CC1(C)CC[C@]2(C(=O)OCCO)CC[C@]3(C)C(=CCC4[C@@]5(C)CC[C@H](O)[C@@](C)(CO)C5CC[C@]43C)C2C1` (stereo partly drawn) [Compound 7, 2-Hydroxyethyl (4aS,6aS,6bR,9R,10S,12aR)-10-hydroxy-9-(hydroxymethyl)-2,2,6a,6b,9,12a-hexamethyl-1,3,4,5,6,6a,6b,7,8,8a,9,10,11,12,12a,12b,13,14b-octadecahydropicene-4a(2H)-carboxylate], the melting point turned out to be 246.6 °C. Further, the IC50 in series [1] was more than 30 µM. For the same compound, in series [2], the IC50 was more than 30 µM. In addition, the IC50 in series [3] was more than 30 µM. In addition, the IC50 in series [4] was more than 30 µM. Also, the IC50 in series [5] was more than 30 µM.
`Cc1ncc(C(=O)OC[C@@]2(C)C3CC[C@]4(C)C(CC=C5C6CC(C)(C)CC[C@]6(C(=O)OCCCCCl)CC[C@]54C)[C@@]3(C)CC[C@@H]2O)nc1C` (stereo partly drawn) [Compound 25, ((3S,4R,6aR,6bS,8aS,14bR)-8a-((4-Chlorobutoxy)carbonyl)-3-hydroxy-4,6a,6b,11,11,14b-hexamethyl-1,2,3,4,4a,5,6,6a,6b,7,8,8a,9,10,11,12,12a,14,14a,14b-icosahydropicen-4-yl)methyl 5,6-dimethylpyrazine-2-carboxylate] returned a melting point of 123.6 °C. Further, in series [1], the IC50 was more than 30 µM. In addition, in series [2], the IC50 was more than 30 µM. Besides, the IC50 in series [3] amounted to 6.42 ± 0.24 µM. For the same compound, the IC50 in series [4] turned out to be 15.6 ± 1.41 µM. Moreover, the IC50 in series [5] is more than 30 µM.
Compound `Cc1ncc(C(=O)OCCOC(=O)[C@]23CCC(C)(C)CC2C2=CCC4[C@@]5(C)CC[C@H](O)[C@@](C)(CO)C5CC[C@@]4(C)[C@]2(C)CC3)nc1C` (stereo partly drawn) [Compound 12, 2-(((4aS,6aS,6bR,9R,10S,12aR)-10-Hydroxy-9-(hydroxymethyl)-2,2,6a,6b,9,12a-hexamethyl-1,2,3,4,4a,5,6,6a,6b,7,8,8a,9,10,11,12,12a,12b,13,14b-icosahydropicene-4a-carbonyl)oxy)ethyl-5,6-dimethylpyrazine-2-carboxylate] returned a melting point of 146.2 °C. In addition, the IC50 in series [1] was found to be 10.1 ± 2.47 µM. The IC50 in series [2] worked out at 13.2 ± 0.2 µM. The IC50 in series [3] worked out at 14.42 ± 0.03 µM. Moreover, the IC50 in series [4] amounted to 17.3 ± 0.58 µM. For the same compound, the IC50 in series [5] amounted to 18.6 ± 0.71 µM.
Compound `Cc1nc(C)c(C(=O)OCCCCOC(=O)[C@]23CCC(C)(C)CC2C2=CCC4[C@@]5(C)CC[C@H](O)[C@@](C)(CO)C5CC[C@@]4(C)[C@]2(C)CC3)nc1C` (stereo partly drawn) [Compound 19, 4-(((4aS,6aS,6bR,9R,10S,12aR)-10-Hydroxy-9-(hydroxymethyl)-2,2,6a,6b,9,12a-hexamethyl-1,2,3,4,4a,5,6,6a,6b,7,8,8a,9,10,11,12,12a,12b,13,14b-icosahydropicene-4a-carbonyl)oxy)butyl-3,5,6-trimethylpyrazine-2-carboxylate] displayed a melting point of 110.1 °C. In series [1], the IC50 was found to be 12.2 ± 0.4 µM. Also, the IC50 in series [2] was 16.5 ± 0.22 µM. Further, in series [3], the IC50 is 9.06 ± 0.32 µM. Also, the IC50 in series [4] came to 27.6 ± 0.52 µM. The IC50 in series [5] came to 16.43 ± 0.04 µM.
`Cc1cnc(C(=O)OCCOC(=O)[C@]23CCC(C)(C)CC2C2=CCC4[C@@]5(C)CC[C@H](O)[C@@](C)(CO)C5CC[C@@]4(C)[C@]2(C)CC3)cn1` (stereo partly drawn) [Compound 10, 2-(((4aS,6aS,6bR,9R,10S,12aR)-10-Hydroxy-9-(hydroxymethyl)-2,2,6a,6b,9,12a-hexamethyl-1,2,3,4,4a,5,6,6a,6b,7,8,8a,9,10,11,12,12a,12b,13,14b-icosahydropicene-4a-carbonyl)oxy)ethyl-5-methylpyrazine-2-carboxylate] registered a melting point of 192.6 °C. Further, the IC50 in series [1] is 20.9 ± 0.68 µM. The IC50 in series [2] is 19.6 ± 3.29 µM. Further, the IC50 in series [3] is 28.17 ± 0.21 µM. For the same compound, the IC50 in series [4] turned out to be 27.2 ± 2.09 µM. The IC50 in series [5] stood at 25.4 ± 0.28 µM.
On to `Cc1nccnc1COC(=O)[C@]12CCC(C)(C)CC1C1=CCC3[C@@]4(C)CC[C@H](O)[C@@](C)(CO)C4CC[C@@]3(C)[C@]1(C)CC2` (stereo partly drawn) [Compound 4, (3-Methylpyrazin-2-yl)methyl(4aS,6aS,6bR,9R,10S,12aR)-10-hydroxy-9-(hydroxymethyl)-2,2,6a,6b,9,12a-hexamethyl-1,3,4,5,6,6a,6b,7,8,8a,9,10,11,12,12a,12b,13,14b-octadecahydropicene-4a(2H)-carboxylate], for which the melting point turned out to be 170.4 °C. In addition, the IC50 in series [1] stood at 17.1 ± 1.06 µM. In addition, the IC50 in series [2] worked out at 20.4 ± 2.24 µM. For the same compound, in series [3], the IC50 was determined as 25.5 ± 1.4 µM. Moreover, the IC50 in series [4] amounted to 17.3 ± 0.48 µM. Further, the IC50 in series [5] was found to be 26.1 ± 1.02 µM.
The compound `Cc1cncc(C(=O)OCCCCOC(=O)[C@]23CCC(C)(C)CC2C2=CCC4[C@@]5(C)CC[C@H](O)[C@@](C)(CO)C5CC[C@@]4(C)[C@]2(C)CC3)n1` (stereo partly drawn) [Compound 15, 4-(((4aS,6aS,6bR,9R,10S,12aR)-10-Hydroxy-9-(hydroxymethyl)-2,2,6a,6b,9,12a-hexamethyl-1,2,3,4,4a,5,6,6a,6b,7,8,8a,9,10,11,12,12a,12b,13,14b-icosahydropicene-4a-carbonyl)oxy)butyl-6-methylpyrazine-2-carboxylate] showed a melting point of 128 °C. The IC50 in series [1] turned out to be 17.98 ± 0.04 µM. Besides, in series [2], the IC50 was 17.6 ± 1.85 µM. In addition, in series [3], the IC50 came to 6.71 ± 0.2 µM. The IC50 in series [4] came to 19.8 ± 1.27 µM. Besides, the IC50 in series [5] stood at 17.1 ± 1.01 µM.
The compound `Cc1nccnc1C(=O)OCCOC(=O)[C@]12CCC(C)(C)CC1C1=CCC3[C@@]4(C)CC[C@H](O)[C@@](C)(CO)C4CC[C@@]3(C)[C@]1(C)CC2` (stereo partly drawn) [Compound 11, 2-(((4aS,6aS,6bR,9R,10S,12aR)-10-Hydroxy-9-(hydroxymethyl)-2,2,6a,6b,9,12a-hexamethyl-1,2,3,4,4a,5,6,6a,6b,7,8,8a,9,10,11,12,12a,12b,13,14b-icosahydropicene-4a-carbonyl)oxy)ethyl-3-methylpyrazine-2-carboxylate] showed a melting point of 146.8 °C. For the same compound, the IC50 in series [1] was 14.12 ± 0.01 µM. Moreover, the IC50 in series [2] was found to be 14.7 ± 0.16 µM. For the same compound, the IC50 in series [3] was determined as 14.84 ± 0.03 µM. In series [4], the IC50 was 27.3 ± 0.57 µM. Besides, the IC50 in series [5] turned out to be 18.64 ± 0.18 µM.
`CC1(C)CC[C@]2(C(=O)OCCCCCl)CC[C@]3(C)C(=CCC4[C@@]5(C)CC[C@H](O)[C@@](C)(COC(=O)c6cnccn6)C5CC[C@]43C)C2C1` (stereo partly drawn) [Compound 21, ((3S,4R,6aR,6bS,8aS,14bR)-8a-((4-Chlorobutoxy)carbonyl)-3-hydroxy-4,6a,6b,11,11,14b-hexamethyl-1,2,3,4,4a,5,6,6a,6b,7,8,8a,9,10,11,12,12a,14,14a,14b-icosahydropicen-4-yl)methyl-pyrazine-2-carboxylate] displayed a melting point of 117.1 °C. The IC50 in series [1] was 9.29 ± 0.99 µM. In series [2], the IC50 was found to be 16.68 ± 0.1 µM. For the same compound, the IC50 in series [3] turned out to be 7.99 ± 0.12 µM. In addition, in series [4], the IC50 stood at 24.98 ± 0.18 µM. The IC50 in series [5] stood at 14.85 ± 0.06 µM.
For `Cc1cnc(C(=O)OCCCCOC(=O)[C@]23CCC(C)(C)CC2C2=CCC4[C@@]5(C)CC[C@H](O)[C@@](C)(CO)C5CC[C@@]4(C)[C@]2(C)CC3)cn1` (stereo partly drawn) [Compound 16, 4-(((4aS,6aS,6bR,9R,10S,12aR)-10-Hydroxy-9-(hydroxymethyl)-2,2,6a,6b,9,12a-hexamethyl-1,2,3,4,4a,5,6,6a,6b,7,8,8a,9,10,11,12,12a,12b,13,14b-icosahydropicene-4a-carbonyl)oxy)butyl-5-methylpyrazine-2-carboxylate], the melting point was determined as 166.1 °C. Besides, the IC50 in series [1] was determined as 24.8 ± 0.66 µM. The IC50 in series [2] came to 14.99 ± 0.12 µM. Also, the IC50 in series [3] is 6.99 ± 0.63 µM. The IC50 in series [4] was found to be 28.49 ± 0.28 µM. For the same compound, in series [5], the IC50 was determined as 20.12 ± 0.06 µM.
